These results are taken from patent US8193203B2, “Bicyclic compounds having activity at the CXCR4 receptor” (Allergan, Inc., priority 2008, dated 2012).

The test addresses T1, human CXCR4 receptor (Homo sapiens, UniProt P61073).
T1 construct: expressed in transfected cells
The experiment in a line: Measurement of intracellular Ca+2 responses (FLIPR), antagonism of the SDF-1α response. It counts as cell-based. Conditions: for IC50: HEK-Gqi5 cells stably expressing human CXCR4, Fluo-4 FLIPR, antagonism of SDF-1α 1.9 nM (EC65); for CXCR4 (% Inh): percent antagonism of SDF-1α 1.9 nM (EC65) response, HEK-Gqi5 human CXCR4 cells, value in brackets. The method in brief: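 HEK-Gqi5 cells stably expressing CXCR4, Fluo-4-loaded (2 uM, 40 min, 37 °C), read on FLIPR. Compound (2.44-40,000 nM) added first for agonism, then SDF-1α at 1.9 nM final (EC65); IC50 and percent antagonism from second-addition calcium signal.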

T1 sequence (P61073 whole entry): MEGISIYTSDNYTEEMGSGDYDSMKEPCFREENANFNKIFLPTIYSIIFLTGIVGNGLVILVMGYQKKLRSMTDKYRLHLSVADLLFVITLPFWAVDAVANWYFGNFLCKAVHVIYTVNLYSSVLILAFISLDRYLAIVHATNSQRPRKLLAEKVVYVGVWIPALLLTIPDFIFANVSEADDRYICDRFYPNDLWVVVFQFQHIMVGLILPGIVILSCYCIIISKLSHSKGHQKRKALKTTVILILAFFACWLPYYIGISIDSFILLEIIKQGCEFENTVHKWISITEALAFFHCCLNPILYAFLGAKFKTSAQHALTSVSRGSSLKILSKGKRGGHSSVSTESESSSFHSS

With `COc1cc2nc(NCCCN(C)C)nc(NC3CCN(Cc4ccccc4N(C)C(C)C)CC3)c2cc1OC` [Compound 224, N2-(3-(Dimethylamino)propyl)-N4-(1-(2-(isopropyl(methyl)amino)benzyl)piperidin-4-yl)-6,7-dimethoxyquinazoline-2,4-diamine], the “CXCR4 (% Inh)” value is 92%. Besides, 695 nM corresponded to half-maximal inhibition (values in nM) (IC50).
For the compound `CCN(CC)CCCNc1nc(NC2CCN(Cc3c(OCCN(C)C)cccc3N(C)C)CC2)c2cc(OC)c(OC)cc2n1` [Compound 166, N˜2˜-[3-(Diethylamino)propyl]-N˜4˜-(1-{2-(dimethylamino)-6-[2-(dimethylamino)ethoxy]benzyl}piperidin-4-yl)-6,7-dimethoxyquinazoline-2,4-diamine], the “CXCR4 (% Inh)” value is given as 94%. In addition, the concentration for half-maximal inhibition (IC50) (as a rule, the midpoint of a concentration-inhibition curve) (values in nM) stood at 49 nM.
As to `CNCC1CN(c2nc(NC3CCN(Cc4c(OC)cccc4N(C)C)CC3)c3ccccc3n2)C1` [Compound 104, N-(1-(2-(Dimethylamino)-6-methoxybenzyl)piperidin-4-yl)-2-(3-((methylamino)methyl)azetidin-1-yl)quinazolin-4-amine], the “CXCR4 (% Inh)” value is listed as 97%. Half-maximal inhibition (values given in μM) (IC50) required 1000 nM.
Take `COc1cc2nc(NCCCN(C)C)nc(NC3CCN(Cc4c(OC)cccc4N(C)C)CC3)c2cc1OC` [Compound 78]: the “CXCR4 (% Inh)” value is recorded as 100%. Besides, the midpoint of inhibition (values in nM), the IC50, lay at 283 nM.
On to `COc1cc2nc(NCc3nccs3)nc(NC3CCN(Cc4c(OCCN(C)C)cccc4N(C)C)CC3)c2cc1OC` [Compound 205, N˜4˜-(1-{2-(Dimethylamino)-6-[2-(dimethylamino)ethoxy]benzyl}piperidin-4-yl)-6,7-dimethoxy-N˜2˜-(1,3-thiazol-2-ylmethyl)quinazoline-2,4-diamine], for which the “CXCR4 (% Inh)” value is on record as 100%. Also, under “values in nM”, the IC50 was 32 nM.
Turning to `CCN(CC)CCCNc1nc(NC2CCN(Cc3ccccc3N3CCCCC3)CC2)c2cc(OC)c(OC)cc2n1` [Compound 50], the “CXCR4 (% Inh)” value came out at 86%. Where the note is “values given in μM”, this compound registered an IC50 of 6700 nM.
On the same counts, the results for `COc1cccc(N(C)C)c1CN1CCC(Nc2nc(N3CCCC(C(N)=O)C3)nc3ccccc23)CC1` (stereo not drawn) [Compound 85, 1-(4-(1-(2-(Dimethylamino)-6-methoxybenzyl)piperidin-4-ylamino)quinazolin-2-yl)piperidine-3-carboxamide] are 93% and 4900 nM.
With `CCN(CC)C(=O)CCNc1nc(NC2CCN(Cc3ccccc3N(C)C)CC2)c2cc(OC)c(OC)cc2n1` [Compound 31], the “CXCR4 (% Inh)” value is given as 92%. The compound further yielded an IC50 (values given in μM) of 2400 nM.
`COc1cc2nc(NCc3ncc[nH]3)nc(NC3CCN(Cc4c(OCCN(C)C)cccc4N(C)C)CC3)c2cc1OC` [Compound 213, N˜4˜-(1-{2-(Dimethylamino)-6-[2-(dimethylamino)ethoxy]benzyl}piperidin-4-yl)-N˜2˜-(1H-imidazol-2-ylmethyl)-6,7-dimethoxyquinazoline-2,4-diamine]: the “CXCR4 (% Inh)” value is recorded as 100%. Also, the IC50 (values in nM) came out at 30 nM.
Take `CCN(CC)CCOc1cccc(N(C)C)c1CN1CCC(Nc2nc(NCCN(C)C)nc3cc(OC)c(OC)cc23)CC1` [Compound 189, N˜4˜-(1-{2-[2-(Diethylamino)ethoxy]-6-(dimethylamino)benzyl}piperidin-4-yl)-N˜2˜-[2-(dimethylamino)ethyl]-6,7-dimethoxyquinazoline-2,4-diamine]: the “CXCR4 (% Inh)” value amounted to 94%. Moreover, the half-inhibitory concentration (IC50) (values in nM) worked out at 45 nM.
Take `COc1cc2nc(NCCCN(C)C)nc(NC3CCN(Cc4c(OC)cccc4N(C)CCN(C)C)CC3)c2cc1OC` [Compound 157, N˜4˜-[1-(2-{[2-(Dimethylamino)ethyl](methyl)amino}-6-methoxybenzyl)piperidin-4-yl]-N˜2˜-[3-(dimethylamino)propyl]-6,7-dimethoxyquinazoline-2,4-diamine]: the “CXCR4 (% Inh)” value worked out at 94%. It took 411 nM to reach half-maximal inhibition (values in nM) (IC50).
As to `CCN(CC)CCCNc1nc(NC2CCN(Cc3ccccc3-n3ccnc3)CC2)c2ccccc2n1` [Compound 131, N4-(1-(2-(1H-Imidazol-1-yl)benzyl)piperidin-4-yl)-N2-(3-(diethylamino)propyl)quinazoline-2,4-diamine], the “CXCR4 (% Inh)” value is 74%. Moreover, the 50% inhibitory concentration (IC50) (values given in μM) is 6600 nM.
Regarding `COc1cc2nc(NCc3cnco3)nc(NC3CCN(Cc4c(OCCN(C)C)cccc4N(C)C)CC3)c2cc1OC` [Compound 212, N˜4˜-(1-{2-(Dimethylamino)-6-[2-(dimethylamino)ethoxy]benzyl}piperidin-4-yl)-6,7-dimethoxy-N˜2˜-(1,3-oxazol-5-ylmethyl)quinazoline-2,4-diamine], the “CXCR4 (% Inh)” value is 98%. The compound further yielded a half-maximal inhibitory concentration (IC50) (values in nM) of 58 nM.
`COc1cccc(N(C)C)c1CN1CCC(Nc2nc(NCCC#N)nc3ccccc23)CC1` [Compound 100, 3-(4-(1-(2-(Dimethylamino)-6-methoxybenzyl)piperidin-4-ylamino)quinazolin-2-ylamino)propanenitrile]: the “CXCR4 (% Inh)” value came out at 100%. In addition, the half-inhibitory concentration (IC50) (values given in μM) came to 1900 nM.
Take `COc1cc2nc(SCCN(C)C)nc(NC3CCN(Cc4c(OCCN(C)C)cccc4N(C)C)CC3)c2cc1OC` [Compound 231, N-(1-(2-(Dimethylamino)-6-(2-(dimethylamino)ethoxy)benzyl)piperidin-4-yl)-2-(2-(dimethylamino)ethylthio)-6,7-dimethoxyquinazolin-4-amine]: the “CXCR4 (% Inh)” value was found to be 96%. Moreover, for the setting “values in nM”, inhibition was half-maximal at 131 nM (IC50).
Consider `CCN(CC)CCCNc1nc(NC2CCN(Cc3ccccc3-n3cccc3)CC2)c2ccccc2n1` [Compound 132, N4-(1-(2-(1H-Pyrrol-1-yl)benzyl)piperidin-4-yl)-N2-(3-(diethylamino)propyl)quinazoline-2,4-diamine], for which the “CXCR4 (% Inh)” value is on record as 84%. This compound came in with a 50% inhibitory concentration (IC50) (values given in μM) of 1400 nM.
On the same counts, the results for `COc1cccc(N(C)C)c1CN1CCC(Nc2nc(NCC[C@@H]3CCCN3C(=O)OC(C)(C)C)nc3ccccc23)CC1` [Compound 114, (S)-tert-Butyl 2-(2-(4-(1-(2-(Dimethylamino)-6-methoxybenzyl)piperidin-4-ylamino)quinazolin-2-ylamino)ethyl)pyrrolidine-1-carboxylate] are 75% and 2100 nM.
As for `CCN(CC)CCCNc1nc(NC2CCN(Cc3ccccc3N(C)C)CC2)c2ccccc2n1` [Compound 35, N2-(3-(Diethylamino)propyl)-N4-(1-(2-(dimethylamino)benzyl)piperidin-4-yl)quinazoline-2,4-diamine], the “CXCR4 (% Inh)” value was determined as 90%. Where the note is “values in nM”, this compound registered a concentration for half-maximal inhibition (IC50) of 330 nM.
`COc1cccc(N(C)C)c1CN1CCC(Nc2nc(NCCCO)nc3ccccc23)CC1` [Compound 99, 3-(4-(1-(2-(Dimethylamino)-6-methoxybenzyl)piperidin-4-ylamino)quinazolin-2-ylamino)propan-1-ol]: the “CXCR4 (% Inh)” value is reported as 100%. Further, where the note is “values in nM”, the 50% inhibitory concentration (IC50) turned out to be 611 nM.
Consider `CN(C)CCCNc1nc(NC2CCN(Cc3c(OCCN(C)C)cccc3N(C)C)CC2)c2ccccc2n1` [Compound 228, N4-(1-(2-(Dimethylamino)-6-(2-(dimethylamino)ethoxy)benzyl)piperidin-4-yl)-N2-(3-(dimethylamino)propyl)quinazoline-2,4-diamine], for which the “CXCR4 (% Inh)” value was 98%. The compound also yielded an IC50 (values in nM) of 71 nM.
Turning to `COc1cccc(N(C)C)c1CN1CCC(Nc2nc(NCC[C@@H]3CCCN3)nc3ccccc23)CC1` [Compound 115, (S)—N-4-(1-(2-(Dimethylamino)-6-methoxybenzyl)piperidin-4-yl)-N2-(2-(pyrrolidin-2-yl)ethyl)quinazoline-2,4-diamine], the “CXCR4 (% Inh)” value was found to be 95%. In addition, the concentration for half-maximal inhibition (IC50) (values in nM) stood at 234 nM.
`CN(C)CCCNc1nc(NC2CCN(Cc3ccccc3-n3cccc3)CC2)c2ccccc2n1` [Compound 130, N4-(1-(2-(1H-Pyrrol-1-yl)benzyl)piperidin-4-yl)-N2-(3-(dimethylamino)propyl)quinazoline-2,4-diamine]: the “CXCR4 (% Inh)” value is recorded as 75%. Further, the 50% inhibitory concentration (IC50) (values in nM) is 978 nM.
On to `COc1cc2nc(NCc3c[nH]cn3)nc(NC3CCN(Cc4c(OCCN(C)C)cccc4N(C)C)CC3)c2cc1OC` [Compound 206, N˜4˜-(1-{2-(Dimethylamino)-6-[2-(dimethylamino)ethoxy]benzyl}piperidin-4-yl)-N˜2˜-(1H-imidazol-4-ylmethyl)-6,7-dimethoxyquinazoline-2,4-diamine], for which the “CXCR4 (% Inh)” value turned out to be 96%. Besides, the IC50 (values in nM) is 16 nM.
Turning to `COc1cccc(N(C)C)c1CN1CCC(Nc2nc(NCCCN(C)C)nc3ccc(Br)cc23)CC1` [Compound 146, 6-Bromo-N˜4˜-{1-[2-(dimethylamino)-6-methoxybenzyl]piperidin-4-yl}-N˜2˜-[3-(dimethylamino)propyl]quinazoline-2,4-diamine], the “CXCR4 (% Inh)” value stood at 96%. Under “values given in μM”, this compound yielded an IC50 of 1200 nM.
Take `COc1cccc(N(C)C)c1CN1CCC(Nc2nc(NCC3CNC3)nc3ccccc23)CC1` [Compound 109, N2-(Azetidin-3-ylmethyl)-N4-(1-(2-(dimethylamino)-6-methoxybenzyl)piperidin-4-yl)quinazoline-2,4-diamine]: the “CXCR4 (% Inh)” value turned out to be 98%. In addition, half-maximal inhibition (values in nM) (IC50) was put at 155 nM.
For `COc1cccc(N(C)C)c1CN1CCC(Nc2nc(NCC(F)(F)F)nc3ccccc23)CC1` [Compound 93, N4-(1-(2-(Dimethylamino)-6-methoxybenzyl)piperidin-4-yl)-N2-(2,2,2-trifluoroethyl)quinazoline-2,4-diamine], the “CXCR4 (% Inh)” value came out at 79%. Under “values given in μM”, this compound came in with an IC50 of 4300 nM.
Consider `COc1cc2nc(NC[C@H](O)CO)nc(NC3CCN(Cc4c(OCCN(C)C)cccc4N(C)C)CC3)c2cc1OC` [Compound 195, 3-({4-[(1-{2-(Dimethylamino)-6-[2-(dimethylamino)ethoxy]benzyl}piperidin-4-yl)amino]-6,7-dimethoxyquinazolin-2-yl}amino)propane-1,2-diol], for which the “CXCR4 (% Inh)” value is on record as 98%. Under “values in nM”, this compound returned an IC50 of 31 nM.
